From patent publication US11510964B2, “Macrocyclic peptides to decrease c-Myc protein levels and reduce cancer cell growth” (University of Kansas, priority 2017, dated 2022)
Non-standard residues stand in square brackets, D forms with d. Residues, ends and D or L forms follow the SMILES beside them.

Key:
PC-3 cells = assay type: cell-based, human; conditions: 48 h, read-out: IC50, cell growth
Protocol: Human prostate cancer PC-3 cells were cultured and maintained in EMEM (ATCC), non-prostate HEK (human embryonic kidney) cells were cultured in DMEM, human prostate cancer DU145, LNCaP, 22Rv1 cells were cultured in RPMI 1640 (ATCC), and normal BPH-1 prostate cells and prostate cancer C4-2 cell line were cultured in RPMI 1640 (ATCC), all containing 10% fetal bovine serum (Atlanta Biologicals) and 1% penicillin/streptomycin (Invitrogen). Cells were grown at 37° C. in humidified air with 5% CO2 and passaged every fourth to fifth day following trypsinization with trypsin/EDTA (Invitrogen).^16
PC-3, LNCaP, DU 145, 22Rv1, C4-2, BPH-1, and HEK cells were grown to a density of 2000 cells/well in 96 well plates and treated with [D-Trp]CJ-15,208 or other peptides for 24-72 h in duplicate. Media containing [D-Trp]CJ-15,208 was changed every 24 h. The proliferation of treated cells was determined using the cell proliferation reagent WST-1 (Roche) per the manufacturer's instructions and compared to […] control cells in 1% DMSO in media. After treatment with compound 10 μL of the reagent was added to the well in 100 μL culture media, and the cells incubated at 37° C. for 30 min. The absorbance of the media in each well was measured at […] using a plate reader (BioTek). The percentage cell proliferation was normalized to vehicle treated control cells calculated as: (mean absorbance of sample/mean absorbance of control cells)×100.^38
Each experiment was performed in triplicate unless otherwise stated in the figure legend. GraphPad Prism 5 was used to determine IC50 values. Data represent the mean value+/−SEM. Compound vs. vehicle treated cells in the cell cycle phase and apoptosis experiments (FIGS. 5-8) were compared using the student's t-test, with a two-tailed, unpaired method, using the Prism software. The effects of compound vs. vehicle treatment on protein levels (FIG. 10) were evaluated by one-way ANOVA with Dunnett's test for multiple comparisons.

[1] = test system: c-Myc protein levels in PC-3 cells; assay: Western blot analysis of cellular c-Myc protein levels; assay type: cell-based, human
Protocol: Cells were seeded in 6 well plates at a density of 1×10^5 cells/well and grown to 75% confluence. Cells were treated with [D-Trp]CJ-15,208 at the indicated concentrations. Cells were then harvested as described above, and the cell pellets lysed in RIPA buffer consisting of 10 mM Tris HCl, pH 8.0, 150 mM NaCl, 1 mM EDTA, 1% Triton-X-100, 0.1% SDS, 1% sodium deoxycholate, and a protease inhibitor cocktail #P8340 (Sigma). Cell lysates were centrifuged at 13×1000 rpm for 15 min and the supernatants collected. The total protein concentration was measured in cell lysates using the standard Bradford assay. SDS gel electrophoresis was performed using 4-20% polyacrylamide gel (BioRad). Western blot analysis was performed using the following antibodies: i) c-Myc #5605 (rabbit monoclonal, 1:2000 dilution, (Cell Signaling Technologies)); actin #A2228 (mouse monoclonal, 1:5000 dilution (Sigma)), PP2A #610555 (mouse monoclonal 1:5000 dilution, BD Biosciences), p-PP2A #1155-1 (rabbit polyclonal, 1:5000 dilution (Epitomics)), Erk #9107 (mouse monoclonal, 1:2000 dilution (Cell Signaling Technologies) and p-Erk #4376 (rabbit monoclonal, 1:2000 (Cell Signaling Technologies)); Akt #2920 (mouse monoclonal, 1:2000 dilution (Cell Signaling Technologies)), p-Akt #4056 (rabbit monoclonal, 1:2000 (Cell Signaling Technologies)). The secondary antibodies, goat-anti-mouse #116-035-003 and goat-anti-rabbit #111-035-003, were obtained from Jackson ImmunoResearch Laboratory. Signal densities of the protein bands were determined using ImageJ software (NIH) and normalized to the internal loading control (actin).

[2] = cited from earlier work
[3] = mice, dose of 60 mg/kg; cited from earlier work
[4] = mice, after systemic administration; cited from earlier work

**Q.** What does the source list for `O=C1N[C@@H](Cc2ccccc2)C(=O)N2CCC[C@@H]2C(=O)N[C@@H](Cc2ccccc2)C(=O)N[C@H]1Cc1c[nH]c2ccccc12` [CJ-15,208, cyclo[Phe-D-Pro-Phe-Trp]] (cyclo(FWF[dP]))?
**A.** IC50 (PC-3 cells): 10.1 ± 0.9 µM; decrease of cellular c-Myc protein levels ([1]; 50 μM (FIG. 1E lanes 4 and 5)): 5 fold; reduction of c-Myc protein levels ([1]; PC-3 cells, 10 μM, 48 h): approximately 50%; activity after oral administration [2]: active after oral administration; toxicity [3]: no evidence of toxicity; blood-brain barrier penetration [4]: appear to penetrate the blood-brain barrier

**Q.** Which “effect on the decrease in c-Myc protein levels caused by [D-Trp]CJ-15,208” value ([1]; PC-3 cells, 10 μM naloxone with 10 μM [D-Trp]CJ-15,208 (FIG. 1F lane 4 vs. lane 2)) does the source give for `C=CCN1CC[C@]23c4c5ccc(O)c4O[C@H]2C(=O)CC[C@@]3(O)[C@H]1C5` [naloxone, reference compound] here?
**A.** did not alter the decrease

**Q.** What about the “effect on c-Myc protein levels” value ([1]; PC-3 cells, 10 μM, 48 h (FIG. 1F lane 3)) of the same molecule?
**A.** no effect

**Q.** Which “effect on cellular c-Myc protein levels” value ([1]; 10 μM (FIG. 1E lane 3)) does the source give for `CC[C@H](C)[C@@H]1NC(=O)[C@H](CCCNC(=N)N)NC(=O)[C@@H](NC(=O)[C@H](Cc2ccccc2)NC(=O)CNC(=O)CNC(=O)[C@H](Cc2ccc(O)cc2)NCc2ccccc2)CC(=O)NC[C@@H](C(=O)N[C@@H](CCCNC(=N)N)C(=O)N2CCC[C@H]2C(=O)N[C@@H](CCCCN)C(N)=O)NC1=O` [zyklophin, reference compound] here?
**A.** not decreased

**Q.** For “dynorphin A-(1-13) (YGGFLRRIRPKP) [reference compound]”, which “effect on cellular c-Myc protein levels” value ([1]; 1 μM (FIG. 1E lane 2)) is on record?
**A.** not decreased
